Test results published in paper PMC5557891, “Time-lapse crystallography snapshots of a double-strand break repair polymerase in action” (Nature Communications, 2017).

Target: T1, pol μ (truncated human wild-type DNA polymerase μ) (Homo sapiens, UniProt Q9NP87, DEL398-410)
T1 construct: gene POLM; recalled: residues about 132-494; loop2 'previously truncated to improve crystallizability' (between Pro397 and Ser411; recalled deletion Pro398-Pro410); GST fusion from pGEXM, tag cut on resin with TEV; E. coli BL21(DE3)CodonPlus-RIPL; parent model PDB 4M04
Assay: time-lapse X-ray crystallography
Format: binding
Conditions: product complex after in crystallo TTP insertion into gapped DNA; 10 mM MgCl2 (60 min, 2.02 Å) or 10 mM MnCl2; 4 °C, pH 7.5

T1 sequence (Q9NP87 with tags, fused parts or gaps DEL398-410): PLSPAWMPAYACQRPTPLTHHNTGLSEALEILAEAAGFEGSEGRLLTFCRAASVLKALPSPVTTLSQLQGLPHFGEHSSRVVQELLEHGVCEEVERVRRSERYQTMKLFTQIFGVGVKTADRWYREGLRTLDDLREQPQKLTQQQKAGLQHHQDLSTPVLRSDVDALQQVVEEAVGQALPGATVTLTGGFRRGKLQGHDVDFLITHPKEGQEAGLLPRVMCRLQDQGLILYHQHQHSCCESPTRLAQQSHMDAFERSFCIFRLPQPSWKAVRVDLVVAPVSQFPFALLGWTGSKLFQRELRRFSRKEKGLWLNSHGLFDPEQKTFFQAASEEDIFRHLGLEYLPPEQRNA

SMILES: O=P(O)(O)OP(=O)(O)O [PPi]
- time-lapse X-ray crystallography: The position of Pβ of the PPi product is identical to that expected after bond cleavage
